Patent US12234221B2, “Pyridine carboxamide compounds for inhibiting NAV1.8” (Lieber Institute, Inc., priority 2018, dated 2025)

Each compound was assayed against T1, human Nav1.8 (hNav1.8) ion channel (Homo sapiens, UniProt Q9Y5Y9) (assay: Nav1.8 channel inhibition, estimated IC50 (one or more of: fluorescence inhibition assay, PatchXpress, IonFlux HT automated patch clamp)). Conditions: HEK293 cells stably expressing hNav1.8; method used per compound not stated; read-out: Activity range (estimated IC50).
T1 construct: expressed in transfected cells; host or cells: HEK293
Type: cell-based
Procedure: The ability of pyridine carboxamide derivatives exemplified above to inhibit the Nav1.8 channel was determined using one or more of the methods described below.
HEK Nav1.8 β1/β2 Stably Expressing Cell Line
A HEK293 cell line stably expressing the human Nav1.8 (hNav1.8) ion channel with β1/β2 subunits was constructed. The cell line is suitable for IC50 determination in fluorescence and electrophysiological based assays. It is also suitable to form mechanism of action pharmacology studies in electrophysiological assays. HEK293 Nav 1.8 cells are grown as adherent monolayers in DMEM/high glucose media, 10% fetal bovine serum, Na pyruvate (2 mM), Hepes (10 mM) with selection agents G418 (400 mg/L) and puromycin (0.5 mg/L) at 37 degrees C., 10% CO2.
Nav 1.8 Fluorescence Inhibition Assay
Compounds were made up to or supplied as a 10-mM stock solution using DMSO as the vehicle. Concentration-response curves were generated using a Matrix multichannel pipettor. Compound source plates were made by diluting 10 mM compound stocks to create 500 μM (100×) solutions in DMSO in 96-well v-bottom plates. Compounds were then serially diluted in 100% DMSO to generate a 5 point, 4-fold dilution scheme dose response curve. 2 μL of the 100× dose response curves was then added to preincubation and stimulation assay plates. 100 μL of pre-incubation buffer and 200 μL of stimulation buffer were then added to the plates resulting in a final assay test concentration range of 5 μM to 0.02 μM with a final DMSO concentration of 1%.
On the day of assay, plates were washed to remove cell culture media using 2K EBSS buffer (135 mM NaCl, 2 mM KCl, 5 mM Glucose, 2 mM CaCl2), 1 mM MgCl2, 10 mM HEPES, pH 7.4). The Na-sensitive fluorescent dye, Asante Natrium Green-2 (ANG-2) is incubated for 60 min to allow equilibration and then washed with 2K EBSS. Plates are the transferred to a fluorescence plate reader (FLIPR™, Molecular Devices) for fluorescence measurement using an excitation wavelength of 490 nm and an emission wavelength of 565 nm. Compounds are pre-incubated at for 5 min at final test concentration in the presence of ouabain (30 μM) to inhibit Na+ efflux through Na+/K+ exchanger. Following the pre-incubation phase, hNav1.8 channels are stimulated with 10 μM of the pyrethroid deltamethrin to prevent channel inactivation. The assay was run for 15 min with vehicle and 30 μM tetracaine serving as negative and positive controls, respectively. The peak change in fluorescence relative to negative and positive control wells was calculated and fit with a logistic equation to determine IC50.
PatchXpress Nav 1.8 Inhibition Assay
HEK-Nav1.8 β1/β2 cells were recorded in whole cell patch-clamp using the PatchXpress automated patch clamp platforms (Molecular Devices). Cells suspensions were obtained by trypsinization of adherent monolayers, followed by gentle rocking for minimally 30 min. Compounds were prepared from 10 mM DMSO stocks.
Nav1.8 channel variants were evaluated using Protocol 1 (FIG. 2) in which cells were initially voltage clamped at a holding potential of −100 mV to maintain Nav1.8 in a closed resting state. After current amplitude becomes stable, the mid-point voltage of steady state inactivation was determined for each cell using a series of 5 sec conditioning steps to increasingly depolarized voltages (−100 to 0 mV) The holding potential was then reset to a voltage that produces ˜50% inactivation (Vhalf−set automatically via PatchXpress scripts) so that closed and inactivated channel inhibition can be assessed. Protocol 1 was run at a frequency of 0.1 Hz until current amplitude is steady (automatically determined by PatchXpress scripts). The effect of test reagent on Nav current amplitude was monitored using custom PatchXpress stability scripts which determines the timing of compound addition and washout. Data were processed and analyzed using DataXpress 2.0 (Molecular Devices). […]

T1 sequence (Q9Y5Y9 whole entry): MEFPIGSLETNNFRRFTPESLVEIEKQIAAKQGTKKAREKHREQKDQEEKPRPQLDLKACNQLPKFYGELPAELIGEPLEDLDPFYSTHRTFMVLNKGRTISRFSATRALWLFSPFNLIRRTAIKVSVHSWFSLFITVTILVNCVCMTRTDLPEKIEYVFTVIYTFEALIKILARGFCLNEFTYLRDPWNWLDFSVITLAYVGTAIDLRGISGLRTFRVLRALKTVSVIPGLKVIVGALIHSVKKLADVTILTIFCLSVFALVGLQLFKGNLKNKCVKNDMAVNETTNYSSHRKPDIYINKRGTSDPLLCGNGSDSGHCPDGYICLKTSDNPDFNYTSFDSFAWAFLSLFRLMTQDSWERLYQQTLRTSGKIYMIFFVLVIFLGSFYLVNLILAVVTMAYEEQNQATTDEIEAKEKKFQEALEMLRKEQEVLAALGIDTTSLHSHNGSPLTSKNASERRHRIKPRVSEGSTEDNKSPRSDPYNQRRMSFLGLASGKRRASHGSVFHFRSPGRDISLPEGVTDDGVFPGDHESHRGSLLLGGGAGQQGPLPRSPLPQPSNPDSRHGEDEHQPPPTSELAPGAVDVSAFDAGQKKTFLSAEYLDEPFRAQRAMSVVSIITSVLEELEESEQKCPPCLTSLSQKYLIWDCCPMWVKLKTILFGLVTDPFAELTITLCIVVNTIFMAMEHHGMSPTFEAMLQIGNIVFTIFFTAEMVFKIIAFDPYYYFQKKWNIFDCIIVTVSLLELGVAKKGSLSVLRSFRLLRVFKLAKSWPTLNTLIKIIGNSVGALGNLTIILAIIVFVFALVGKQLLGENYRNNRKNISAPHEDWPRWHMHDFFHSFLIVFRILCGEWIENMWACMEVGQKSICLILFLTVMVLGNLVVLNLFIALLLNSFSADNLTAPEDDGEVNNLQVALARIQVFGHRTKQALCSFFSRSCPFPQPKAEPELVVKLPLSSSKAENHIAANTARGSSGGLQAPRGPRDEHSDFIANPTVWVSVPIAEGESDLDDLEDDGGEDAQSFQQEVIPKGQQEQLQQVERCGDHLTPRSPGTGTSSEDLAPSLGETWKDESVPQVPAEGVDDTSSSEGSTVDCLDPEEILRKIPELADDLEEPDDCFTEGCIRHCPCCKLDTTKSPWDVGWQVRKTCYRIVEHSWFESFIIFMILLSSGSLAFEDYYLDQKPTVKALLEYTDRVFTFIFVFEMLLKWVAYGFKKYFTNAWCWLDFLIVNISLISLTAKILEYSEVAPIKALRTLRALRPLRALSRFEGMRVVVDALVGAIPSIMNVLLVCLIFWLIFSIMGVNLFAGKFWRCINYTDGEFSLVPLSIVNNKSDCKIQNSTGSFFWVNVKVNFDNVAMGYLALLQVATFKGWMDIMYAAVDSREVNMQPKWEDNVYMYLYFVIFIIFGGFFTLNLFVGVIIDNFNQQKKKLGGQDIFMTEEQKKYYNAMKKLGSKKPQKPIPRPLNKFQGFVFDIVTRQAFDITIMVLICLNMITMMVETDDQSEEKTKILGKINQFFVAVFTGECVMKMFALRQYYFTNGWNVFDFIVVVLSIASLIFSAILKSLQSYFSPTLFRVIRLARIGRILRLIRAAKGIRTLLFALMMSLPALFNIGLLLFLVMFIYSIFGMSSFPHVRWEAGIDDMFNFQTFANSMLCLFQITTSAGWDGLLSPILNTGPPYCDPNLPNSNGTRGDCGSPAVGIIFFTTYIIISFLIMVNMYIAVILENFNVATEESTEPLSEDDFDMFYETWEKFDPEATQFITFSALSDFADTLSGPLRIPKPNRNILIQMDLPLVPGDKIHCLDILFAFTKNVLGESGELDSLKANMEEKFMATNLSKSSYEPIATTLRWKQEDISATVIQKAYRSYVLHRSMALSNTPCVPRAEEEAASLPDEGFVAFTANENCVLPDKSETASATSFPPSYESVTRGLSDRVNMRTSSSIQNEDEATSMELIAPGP

IC50 [nM]	Structure (SMILES)
> 1000	COc1cc(NC(=O)c2cc(C(F)(F)F)cnc2Oc2ccc(F)cc2C)ccn1 [Example 109, 2-(4-fluoro-2-methyl-phenoxy)-N-(2-methoxy-4-pyridyl)-5-(trifluoromethyl)pyridine-3-carboxamide]
< 500	O=C(Nc1ccnnc1)c1cc(C(F)(F)F)cnc1Oc1ccc(OC(F)(F)F)cc1 [Example 128, N-pyridazin-4-yl-2-[4-(trifluoromethoxy)phenoxy]-5-(trifluoromethyl)pyridine-3-carboxamide]
< 500	CN=S(C)(=O)c1cccc(NC(=O)c2cc(C(F)(F)F)cnc2Oc2ccc(F)cc2C)c1 (stereo not drawn) [Example 114, N-[3-(N,S-dimethylsulfonimidoyl)phenyl]-2-(4-fluoro-2-methyl-phenoxy)-5-(trifluoromethyl)pyridine-3-carboxamide]
> 1000	Cc1cc(F)ccc1Oc1cc(C(F)(F)F)ncc1C(=O)Nc1cccc(S(C)(=N)=O)c1 (stereo not drawn) [Example 93, 4-(4-fluoro-2-methyl-phenoxy)-N-[3-(methylsulfonimidoyl)phenyl]-6-(trifluoromethyl)pyridine-3-carboxamide]
< 500	COc1cc(F)ccc1Oc1ncc(C(F)(F)F)cc1C(=O)Nc1cccc(S(C)(=O)=O)c1 [Example 35, 2-(4-fluoro-2-methoxy-phenoxy)-N-(3-methylsulfonyl-phenyl)-5-(trifluoromethyl)pyridine-3-carboxamide]
< 500	COc1ccc(Oc2ncc(C(F)(F)F)cc2C(=O)Nc2cccc(S(C)(=N)=O)c2)c(OC)c1 (stereo not drawn) [Example 172, 2-(2,4-dimethoxyphenoxy)-N-[3(methylsulfonimidoyl)phenyl]-5-(trifluoromethyl)pyridine-3-carboxamide]
500 to 1000	CN(C)c1ccccc1Oc1ncc(C(F)(F)F)cc1C(=O)Nc1cccc(S(C)(=O)=O)c1 [Example 52, 2-[2-(dimethylamino)phenoxy]-N-(3-methylsulfonyl-phenyl)-5-(trifluoromethyl)pyridine-3-carboxamide]
< 500	Cc1cc(OC(F)(F)F)ccc1Oc1ncc(C(F)(F)F)cc1C(=O)Nc1cccc(S(C)(=O)=O)c1 [Example 37, N-(3-methylsulfonyl-phenyl)-2-[2-methyl-4-(trifluoromethoxy)phenoxy]-5-(trifluoromethyl)pyridine-3-carboxamide]
< 500	CN=S(C)(=O)c1cccc(NC(=O)c2cc(C(F)(F)F)cnc2Oc2ccc(F)cc2OC)c1 (stereo not drawn) [Example 16, N-[3-(N,S-dimethylsulfonimidoyl)phenyl]-2-(4-fluoro-2-methoxy-phenoxy)-5-(trifluoromethyl)pyridine-3-carboxamide]
> 1000	COc1cc(F)ccc1Oc1ncc(C(F)(F)F)cc1C(=O)Nc1ccc(C#N)cc1 [Example 5, N-(4-cyanophenyl)-2-(4-fluoro-2-methoxy-phenoxy)-5-(trifluoromethyl)pyridine-3-carboxamide]
500 to 1000	O=C(Nc1ccnnc1)c1cnc(C(F)(F)F)cc1Oc1ccc(OC(F)(F)F)cc1 [Example 96, N-pyridazin-4-yl-4-[4-(trifluoromethoxy)phenoxy]-6-(trifluoromethyl)pyridine-3-carboxamide]
> 1000	COc1cc(F)ccc1Oc1ncc(Br)cc1C(=O)Nc1cccc(S(C)(=O)=O)c1 [Example 111, 5-bromo-2-(4-fluoro-2-methoxy-phenoxy)-N-(3-methylsulfonylphenyl)pyridine-3-carboxamide]
< 500	COc1cc(F)ccc1Oc1cc(C(F)(F)F)ncc1C(=O)Nc1cc(S(C)(=O)=O)ccc1F [Example 69, 4-(4-fluoro-2-methoxy-phenoxy)-N-(2-fluoro-5-methylsulfonyl-phenyl)-6-(trifluoromethyl)pyridine-3-carboxamide]
< 500	CN=S(C)(=O)c1cccc(NC(=O)c2cnc(C(F)(F)F)cc2Oc2ccc(F)cc2C)c1 (stereo not drawn) [Example 94, N-[3-(N,S-dimethylsulfonimidoyl)phenyl]-4-(4-fluoro-2-methyl-phenoxy)-6-(trifluoromethyl)pyridine-3-carboxamide]
< 500	Cc1cc(F)ccc1Oc1cc(C(F)(F)F)ncc1C(=O)Nc1ccnnc1 [Example 95, 4-(4-fluoro-2-methyl-phenoxy)-N-pyridazin-4-yl-6-(trifluoromethyl)pyridine-3-carboxamide]
> 1000	COc1cc(F)ccc1Oc1ncc(C(F)(F)F)cc1C(=O)Nc1cccnc1 [Example 4, 2-(4-fluoro-2-methoxy-phenoxy)-N-(3-pyridyl)-5-(trifluoromethyl)pyridine-3-carboxamide]
< 500	COc1cc(F)ccc1Oc1cc(C(F)(F)F)ncc1C(=O)Nc1ccncc1 [Example 72, 4-(4-fluoro-2-methoxy-phenoxy)-N-(4-pyridyl)-6-(trifluoromethyl)pyridine-3-carboxamide]
> 1000	COc1ccc(Oc2ncc(C(F)(F)F)cc2C(=O)Nc2ccnnc2)c(Cl)c1 [Example 65, 2-(2-chloro-4-methoxy-phenoxy)-N-pyridazin-4-yl-5-(trifluoromethyl)pyridine-3-carboxamide]
> 1000	CS(=O)(=O)c1cccc(NC(=O)c2cc(C(F)(F)F)cnc2Oc2ccc(F)cc2)c1 [Example 34, 2-(4-fluorophenoxy)-N-(3-methylsulfonyl-phenyl)-5-(trifluoromethyl)pyridine-3-carboxamide]
< 500	CS(=O)(=O)c1cccc(NC(=O)c2cc(C(F)(F)F)cnc2Oc2ccc(Cl)cc2Cl)c1 [Example 21, 2-(2,4-dichlorophenoxy)-N-(3-methylsulfonylphenyl)-5-(trifluoromethyl)pyridine-3-carboxamide]
> 1000	COc1cc(C)ccc1Oc1ncc(C(F)(F)F)cc1C(=O)Nc1cccc(S(C)(=O)=O)c1 [Example 25, 2-(2-methoxy-4-methyl-phenoxy)-N-(3-methylsulfonylphenyl)-5-(trifluoromethyl)pyridine-3-carboxamide]
< 500	O=C(Nc1ccncc1)c1cnc(C(F)(F)F)cc1Oc1ccc(OC(F)(F)F)cc1Cl [Example 79, 4-[2-chloro-4-(trifluoromethoxy)phenoxy]-N-(4-pyridyl)-6-(trifluoromethyl)pyridine-3-carboxamide]
< 500	O=C(Nc1ccnnc1)c1cnc(C(F)(F)F)cc1Oc1ccc(OC(F)(F)F)cc1Cl [Example 98, 4-[2-chloro-4-(trifluoromethoxy)phenoxy]-N-pyridazin-4-yl-6-(trifluoromethyl)pyridine-3-carboxamide]
> 1000	COc1cc(F)ccc1Oc1ncc(C(F)(F)F)cc1C(=O)Nc1cccc(S(=O)(=O)C(F)(F)F)c1 [Example 13, 2-(4-fluoro-2-methoxy-phenoxy)-5-(trifluoromethyl)-N-[3-(trifluoromethylsulfonyl)phenyl]pyridine-3-carboxamide]
< 500	O=C(Nc1ccnnc1)c1cc(C(F)(F)F)cnc1Oc1ccc(OC(F)(F)F)cc1Cl [Example 161, 2-[2-chloro-4-(trifluoromethoxy)phenoxy]-N-pyridazin-4-yl-5-(trifluoromethyl)pyridine-3-carboxamide]
< 500	CS(=N)(=O)c1cccc(NC(=O)c2cc(C(F)(F)F)cnc2Oc2ccc(F)cc2Cl)c1 (stereo not drawn) [Example 60, 2-(2-chloro-4-fluoro-phenoxy)-N-[3-(methylsulfonimidoyl)phenyl]-5-(trifluoromethyl)pyridine-3-carboxamide]
< 500	CS(=O)(=O)c1cccc(NC(=O)c2cc([N+](=O)[O-])cnc2Oc2ccc(OC(F)(F)F)cc2)c1 [Example 180, N-(3-methylsulfonylphenyl)-5-nitro-2-[4-(trifluoromethoxy)phenoxy]pyridine-3-carboxamide]
